Test results taken from patent publication US20160045497A1, “COMPLEX PREPARATION INCLUDING VALSARTAN AND ROSUVASTATIN CALCIUM AND MANUFACTURING METHOD THEREFOR” (LG LIFE SCIENCES LTD., priority 2013, published 2016).

How the values were obtained:
[1] = tested on: patients with hypertension and hyperlipidemia; assay: Clinical test of combined vs single administration: change of LDL-C after 8 weeks; format: in vivo, human; settings: valsartan 160 mg and/or rosuvastatin 20 mg
Protocol: (§1) The following tests were performed for patients with hypertension and hyperlipidemia to evaluate the efficacy and safety of the combined administration of 160 mg of valsartan and 20 mg of rosuvastatin in comparison with single administration of each of them.
(§2) A screening inspection was conducted for the subjects, who were 20- to 80-year-old patients suffering from hypertension and hyperlipidemia, to ascertain whether they met the selection/exclusion criteria, and administration of the drugs for treating hypertension and hyperlipidemia, which the subjects had taken, was stopped. All the patients who passed the screening inspection were subjected to Therapeutic Lifestyle Change (TLC) for 4 to 6 weeks, and their blood pressure and fasting serum lipid level were measured finally in the measurement 2 (0 week) visit. If the measured values were recognized as suitable to the following criteria, the patient was randomly assigned to one group of the four (4) treatment groups. […]
(§3) According to random assignment, each subject was assigned with the same probability to one of a total of four groups consisting of one combined administration group (group 1), two single administration groups (groups 2 and 3) and one placebo group (group 4) as shown in the following table. […] The visit window was±4 days at each visit, and the timing of visit was determined with the standard of 0 week. […]

[2] = tested on: patients with hypertension and hyperlipidemia; assay: Clinical test of combined vs single administration: change of sitDBP after 8 weeks; format: in vivo, human; settings: valsartan 160 mg and/or rosuvastatin 20 mg
Protocol: as §1, §2, §3

Compound | average rate of change of LDL-C from the baseline (Least Square Mean) [1] [%] | average amount of change of sitDBP from the baseline (Least Square Mean) [2] [mmHg]
CCCCC(=O)N(Cc1ccc(-c2ccccc2-c2nnn[nH]2)cc1)[C@H](C(=O)O)C(C)C [Example V160, valsartan] | −4.52 | −7.26
CC(C)c1nc(N(C)S(C)(=O)=O)nc(-c2ccc(F)cc2)c1/C=C/[C@@H](O)C[C@@H](O)CC(=O)O [Example R20, rosuvastatin] | −47.27 | −3.64
